Like-named read-outs stand apart in the source and are kept apart here.
Columns and labels:
[1] = Solubility in the physiological pH range; assay type: physicochemical; conditions: data unpublished
[2] = tested on: patients with the most advanced stage of chronic heart failure dependent on intravenous inotrope therapy; conditions: cited from earlier work
[3] = tested on: type-III phosphodiesterase (PDE-III); conditions: cited from earlier work
clinical [4] = conditions: human, in vivo, plasma concentration
clinical [5] = conditions: human, plasma

**Q.** Which results are given for CSc1ccc(C(=O)c2[nH]c(=O)[nH]c2C)cc1 [enoximone, 1,3-Dihydro-4-methyl-5-[4-(methylthio)benzoyl]-2H-imidazol-2-one]?
**A.** solubility [1]: Limited solubility; plasma concentration (Patient 1, dose 50 mg, PREDOSE): 69.7 ng/mL; plasma concentration (Patient 4, dose 25 mg, HR ALIQUOT 1 (between 0.5 HR and 2 HR)): 65.8 ng/mL; time to death or re-initiation of i.v. inotrope therapy ([2]; 60-day (p=0.012), 75-day (p=0.016) and 90-day (p=0.041) periods): benefit in favor of enoximone versus placebo; time to death or re-initiation of i.v. inotrope therapy ([2]; 182-day period (p=0.188)): not; mean total days on i.v. inotrope therapy over the course of the study ([2]; placebo 49 days, p=0.049): 28 days; inhibition of type-III phosphodiesterase [3]: highly selective inhibition; concentration at 0 h (clinical [4]; Max): 150 ng/mL; concentration at 2 h (clinical [4]; Max): 400 ng/mL; concentration at 4 h (clinical [4]; Max): 200 ng/mL; concentration at 8 h (clinical [4]; Max): 150 ng/mL; concentration at 0 h (clinical [4]; Min): 0 ng/mL; concentration at 2 h (clinical [4]; Min): 20 ng/mL; concentration at 4 h (clinical [4]; Min): 15 ng/mL; concentration at 8 h (clinical [4]; Min): 0 ng/mL; concentration at 0.5 h (clinical [5]; 25 mg, Patient 4, dose 25 mg): 23.7 ng/mL; concentration at 2 h (clinical [5]; 25 mg, Patient 4, dose 25 mg, 2 HR): 63.6 ng/mL; concentration at 0 h (clinical [5]; 25 mg, Patient 4, dose 25 mg, PREDOSE): 18.6 ng/mL; concentration at 2 h (clinical [5]; 50 mg, Max, 2 hrs, after dosing of enoximone, 5 patients, raw data): 383 ng/mL; concentration at 0.5 h (clinical [5]; 50 mg, Patient 1, dose 50 mg): 118 ng/mL; concentration at 1 h (clinical [5]; 50 mg, Patient 1, dose 50 mg): 424 ng/mL; concentration at 2 h (clinical [5]; 50 mg, Patient 1, dose 50 mg, 2 HR): 383 ng/mL; concentration at 4 h (clinical [5]; 50 mg, Patient 1, dose 50 mg, 4 HR): 209 ng/mL; concentration at 6 h (clinical [5]; 50 mg, Patient 1, dose 50 mg): 112 ng/mL; concentration at 0.5 h (clinical [5]; 50 mg, Patient 2, dose 50 mg): 52.8 ng/mL; concentration at 1 h (clinical [5]; 50 mg, Patient 2, dose 50 mg): 49.8 ng/mL; concentration at 2 h (clinical [5]; 50 mg, Patient 2, dose 50 mg, 2 HR): 127 ng/mL; concentration at 4 h (clinical [5]; 50 mg, Patient 2, dose 50 mg, 4 HR): 237 ng/mL; concentration at 6 h (clinical [5]; 50 mg, Patient 2, dose 50 mg): 122 ng/mL; concentration at 0 h (clinical [5]; 50 mg, Patient 2, dose 50 mg, PREDOSE): 66.7 ng/mL; concentration at 0.5 h (clinical [5]; 50 mg, Patient 3, dose 50 mg): 92.4 ng/mL; concentration at 1 h (clinical [5]; 50 mg, Patient 3, dose 50 mg): 118 ng/mL; concentration at 2 h (clinical [5]; 50 mg, Patient 3, dose 50 mg, 2 HR): 110 ng/mL; concentration at 4 h (clinical [5]; 50 mg, Patient 3, dose 50 mg, 4 HR): 78.2 ng/mL; concentration at 6 h (clinical [5]; 50 mg, Patient 3, dose 50 mg): 71.7 ng/mL; concentration at 0 h (clinical [5]; 50 mg, Patient 3, dose 50 mg, PREDOSE): 34.4 ng/mL; concentration at 0.5 h (clinical [5]; 50 mg, Patient 5, dose 50 mg): 137 ng/mL; concentration at 1 h (clinical [5]; 50 mg, Patient 5, dose 50 mg): 355 ng/mL; concentration at 2 h (clinical [5]; 50 mg, Patient 5, dose 50 mg, 2 HR): 369 ng/mL; concentration at 4 h (clinical [5]; 50 mg, Patient 5, dose 50 mg, 4 HR): 268 ng/mL; concentration at 6 h (clinical [5]; 50 mg, Patient 5, dose 50 mg): 166 ng/mL; concentration at 0 h (clinical [5]; 50 mg, Patient 5, dose 50 mg, PREDOSE): 149 ng/mL; concentration at 0 h (clinical [5]; Max, 0 hr, after dosing of enoximone, 5 patients, raw data): 149 ng/mL; concentration at 4 h (clinical [5]; Max, 4 hrs, after dosing of enoximone, 5 patients, raw data): 268 ng/mL; concentration at 8 h (clinical [5]; Max, after dosing of enoximone, 5 patients, raw data): 166 ng/mL; concentration at 0 h (clinical [5]; Min, 0 hr, after dosing of enoximone, 5 patients, raw data): 7.95 ng/mL; concentration at 2 h (clinical [5]; Min, 2 hrs, after dosing of enoximone, 5 patients, raw data): 63.6 ng/mL; concentration at 4 h (clinical [5]; Min, 4 hrs, after dosing of enoximone, 5 patients, raw data): 44 ng/mL; concentration at 8 h (clinical [5]; Min, after dosing of enoximone, 5 patients, raw data): 20.7 ng/mL

Reference: patent US20060018970A1, “Enoximone formulations and their use in the treatment of cardiac hypertrophy and heart failure” (Myogen, Inc., priority 2003, published 2006)
